Our source for the inhibition values is patent EP2857388A1, “Azoles containing sulfone” (Grünenthal GmbH, priority 2013, dated 2015).

This test concerns the target T1, human B1R (Homo sapiens, UniProt P46663).
T1 construct: expressed in transfected cells; host or cells: CHO K1 cells (Chinese Hamster Ovary), stably transfected
T1 sequence (P46663 1-353): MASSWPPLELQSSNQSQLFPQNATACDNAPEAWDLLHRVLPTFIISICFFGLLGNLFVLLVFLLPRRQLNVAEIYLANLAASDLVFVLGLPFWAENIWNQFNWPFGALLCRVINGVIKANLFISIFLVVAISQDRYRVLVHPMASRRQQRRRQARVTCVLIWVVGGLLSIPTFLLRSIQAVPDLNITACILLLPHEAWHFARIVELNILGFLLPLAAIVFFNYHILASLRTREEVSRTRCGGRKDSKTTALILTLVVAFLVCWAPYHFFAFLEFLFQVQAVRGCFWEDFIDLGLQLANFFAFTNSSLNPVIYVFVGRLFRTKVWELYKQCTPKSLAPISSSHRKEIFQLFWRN
Put plainly: Functional assay at bradykinin receptor 1 (B1R): Ca2+ fluorescence (Fluo-4) in FLIPR/Novostar, antagonist mode. As to conditions: test substance 10 µM; CHO K1 cells stably transfected with human B1R gene (hB1R-Zellen); agonist Lys-Des-Arg9-Bradykinin at EC80; % inhibition relative to maximal achievable inhibition; read-out: % Inhibierung (human B1R) bei 10 µM. The test is classed as cell-based. As to the method: Die agonistische bzw. antagonistische Wirkung von Substanzen kann am Bradykinin Rezeptor 1 (B1R) der Spezies Mensch und Ratte mit ektopisch exprimierenden Zelllinien (CHO K1 Zellen) und mit Hilfe eines Ca^2+-sensitiven Farbstoffs (Fluo-4) im Fluorescent Imaging Plate Reader (FLIPR) quantifiziert werden. Die Angabe in % Aktivierung wird bezogen auf das Ca^2+-Signal nach Zugabe von Lys-Des-Arg^9-Bradykinin ([…]), bzw. Des-Arg^9-Bradykinin (100 nM). Antagonisten führen zu einer Unterdrückung des Ca^2+-Einstroms nach der Zugabe des Agonisten. Angegeben werden % Inhibition im Vergleich zu der maximal erreichbaren Inhibition.
Die agonistische bzw. antagonistische Wirkung von Substanzen kann am Bradykinin Rezeptor 1 (B1R) der Spezies Mensch und Ratte mit folgendem Assay bestimmt werden. Gemäß diesem Assay wird der intrazelluläre Ca^2+-Anstieg nach Gabe eines B1 R Agonisten mit Hilfe eines Ca^2+-sensitiven Farbstoffs (Typ Fluo-4, Molecular Probes Europe BV, Leiden NL) im Fluorescent Imaging Plate Reader (FLIPR, Molecular Devices, Sunnyvale, USA) und/oder im Novostar (BMG Labtech GmbH, Offenburg, DE) quantifiziert.
Es werden Chinese Hamster Ovary Zellen (CHO K1 Zellen) verwendet, die stabil mit dem humanen B1 R-Gen (hB1R-Zellen) bzw. dem B1 R-Gen der Ratte (rB1R-Zellen) transfiziert sind. Für funktionelle Untersuchungen werden diese Zellen auf schwarze 96-Loch-Platten mit klarem Boden (BD Biosciences, Heidelberg, DE oder Greiner, Frickenhausen, DE) in einer Dichte von 20.000 - 35.000 Zellen/Loch ausplattiert. Über Nacht werden die Zellen bei 37°C und 5 % CO2 in Kulturmedium (hB1 R-Zellen: Nutrient Mixture Ham's F12, Gibco Invitrogen GmbH, Karlsruhe, Deutschland oder DMEM, Sigma-Aldrich, Taufkirchen, Deutschland; rB1R-Zellen: D-MEM/F12, Gibco Invitrogen GmbH, Karlsruhe, DE) mit 10 Vol-% FBS (Fetal bovine serum, Gibco Invitrogen GmbH, Karlsruhe, DE oder PAN Biotech GmbH, Aidenbach, DE) belassen. Am folgenden Tag werden die Zellen mit 2,13 µM Fluo-4 (Molecular Probes Europe BV, Leiden, NL) in HBSS-Puffer (Hank's buffered saline solution, Gibco Invitrogen GmbH, Karlsruhe, DE) mit 2,5 mM Probenecid (Sigma-Aldrich, Taufkirchen, DE) und 10 mM HEPES (Sigma-Aldrich, Taufkirchen, DE) für 60 min bei 37°C beladen. Anschließend werden die Platten 2 x mit HBSS-Puffer gewaschen und mit HBSS-Puffer versetzt, der zusätzlich 0,1 % BSA (bovines Serumalbumin; Sigma-Aldrich, Taufkirchen, Deutschland), 5,6 mM Glucose und 0,05 % Gelatine (Merck KGaA, Darmstadt, DE) enthält. Nach einer weiteren Inkubation von 20 Minuten bei RT werden die Platten zur Ca^2+-Messung im FLIPR oder Novostar eingesetzt. Alternativ wird mit Puffer A (15 mM HEPES, 80 mM NaCl, 5 mM KCI, 1,2 mM CaCl2, 0,7 mM MgSO4, 2g/L Glucose, 2,5 mM Probenecid) gewaschen und mit Puffer A versetzt mit 2,5 µM Fluo-4 und 0,025 % Pluronic F127 (Sigma-Aldrich, Taufkirchen, DE) beladen. Danach werden die Zellen 2 x mit Puffer A gewaschen und für 30 Minuten mit Puffer A, der zusätzlich 0,05 % BSA und 0,05 % Gelatine enthält bei RT inkubiert und danach zur Ca^2+-Messung im FLIPR oder Novostar eingesetzt.
Die Ca^2+-abhängige Fluoreszenz wird dabei vor und nach Zugabe von Substanzen gemessen (λex = 488 nm, λem = 540 nm). Die Quantifizierung erfolgt durch die Messung der höchsten Fluoreszenzintensität (FC, Fluorescence Counts) über die Zeit.
Das FLIPR-Protokoll besteht aus 2 Substanzzugaben, die im FLIPR pipettiert werden. Bei Messungen im Novostar wird nur die zweite Substanzzugabe im Gerät pipettiert. Beide Geräte messen die Fluoreszenzintensität über die Zeit. Zunächst werden Testsubstanzen (10 µM) auf die Zellen pipettiert und der intrazelluläre Ca^2+-Anstieg mit der Kontrolle (hB1 R: Lys-Des-Arg^9-Bradykinin >= 50 nM; rB1 R: Des-Arg^9-Bradykinin >= 1 µM) verglichen. Daraus ergibt sich die Angabe in % Aktivierung bezogen auf das Ca^2+-Signal nach Zugabe von Lys-Des-Arg^9-Bradykinin (>= 50 nM), bzw. Des-Arg^9-Bradykinin (>=1 µM). Nach 6-20 Minuten Inkubation werden Lys-Des-Arg^9-Bradykinin (hB1 R) bzw. […]

For `COc1cc(C)c(S(=O)(=O)Cc2noc(C(=O)NC3CCC(N4CCCC4)CC3(C)C)n2)c(C)c1` (stereo not shown) [CC-21, N-(2,2-Dimethyl-4-pyrrolidin-1-yl-cyclohexyl)-3-[[(4-methoxy-2,6-dimethyl-phenyl)sulfonyl]-methyl]-[1,2,4]oxadiazol-5-carbonsäure amid], the inhibition at 10 µM came to 100%.

In the case of `Cc1cc(S(=O)(=O)Cc2noc(C(=O)NC3CCC(N4CCCC4)CC3(C)C)n2)c(C)cc1Cl` (stereo not shown) [CC-22, 3-[[(4-Chlor-2,5-dimethyl-phenyl)sulfonyl]-methyl]-N-(2,2-dimethyl-4-pyrrolidin-1-yl-cyclohexyl)-[1,2,4]oxadiazol-5-carbonsäure amid], the inhibition at 10 µM is 100%.

`COc1cc(C)c(S(=O)(=O)Cc2noc(CC(=O)NC3CCC(N4CCCC4)CC3(C)C)n2)c(C)c1` (stereo not shown) [CC-23, N-(2,2-Dimethyl-4-pyrrolidin-1-yl-cyclohexyl)-2-[3-[[(4-methoxy-2,6-dimethyl-phenyl)sulfonyl]-methyl]-[1,2,4]oxadiazol-5-yl]-acetamid]: the inhibition at 10 µM was 100%.

On to `Cc1cc(S(=O)(=O)Cc2noc(C(=O)NC3CCNCC3(C)C)n2)c(C)cc1Cl` (stereo not shown) [CC-24, 3-[[(4-Chlor-2,5-dimethyl-phenyl)sulfonyl]-methyl]-N-(3,3-dimethyl-piperidin-4-yl)-[1,2,4]oxadiazol-5-carbonsäure amid], for which the inhibition at 10 µM amounted to 86%.

`COc1cc(C)c(S(=O)(=O)Cc2nc(CC(=O)NC3CCC(N4CCCC4)CC3(C)C)no2)c(C)c1` (stereo not shown) [CC-26, N-(2,2-Dimethyl-4-pyrrolidin-1-yl-cyclohexyl)-2-[5-[[(4-methoxy-2,6-dimethyl-phenyl)sulfonyl]-methyl]-[1,2,4]oxadiazol-3-yl]-acetamid]: the inhibition at 10 µM was found to be 100%.

Regarding `COCCN1CCC(NC(=O)Cc2noc(CS(=O)(=O)c3c(C)cc(OC)cc3C)n2)C(C)(C)C1` (stereo not shown) [CC-27, 2-[5-[[(4-Methoxy-2,6-dimethyl-phenyl)sulfonyl]-methyl]-[1,2,4]oxadiazol-3-yl]-N-[1-(2-methoxy-ethyl)-3,3-dimethyl-piperidin-4-yl]-acetamid], the inhibition at 10 µM is 100%.

As for `COc1cc(C)c(S(=O)(=O)Cc2nc(CC(=O)NC3CCC(N(C)C)CC3)no2)c(C)c1` (stereo not shown) [CC-28, N-(4-Dimethylamino-cyclohexyl)-2-[5-[[(4-methoxy-2,6-dimethyl-phenyl)sulfonyl]-methyl]-[1,2,4]oxadiazol-3-yl]-acetamid], the inhibition at 10 µM was 100%.

For `COc1cc(C)c(S(=O)(=O)Cc2nnc(CC(=O)NC3CCC(N4CCCC4)CC3(C)C)o2)c(C)c1` (stereo not shown) [CC-29, N-(2,2-Dimethyl-4-pyrrolidin-1-yl-cyclohexyl)-2-[5-[[(4-methoxy-2,6-dimethyl-phenyl)sulfonyl]-methyl]-[1,3,4]oxadiazol-2-yl]-acetamid], the inhibition at 10 µM was 100%.

For the compound `COc1cc(C)c(S(=O)(=O)Cc2nc(CC(=O)NC3CCN(C(C)=O)CC3(C)C)no2)c(C)c1` (stereo not shown) [CC-30, N-(1-Acetyl-3,3-dimethyl-piperidin-4-yl)-2-[5-[[(4-methoxy-2,6-dimethyl-phenyl)sulfonyl]-methyl]-[1,2,4]oxadiazol-3-yl]-acetamid], the inhibition at 10 µM is 90%.

In the case of `COCCN1CCC(NC(=O)Cc2nnc(CS(=O)(=O)c3c(C)cc(OC)cc3C)o2)C(C)(C)C1` (stereo not shown) [CC-31, 2-[5-[[(4-Methoxy-2,6-dimethyl-phenyl)sulfonyl]-methyl]-[1,3,4]oxadiazol-2-yl]-N-[1-(2-methoxy-ethyl)-3,3-dimethyl-piperidin-4-yl]-acetamid], the inhibition at 10 µM was 100%.

As for `COc1cc(C)c(S(=O)(=O)Cc2nc(CC(=O)NC3CCC(N4CCCC4)CC3)no2)c(C)c1` (stereo not shown) [CC-32, 2-[5-[[(4-Methoxy-2,6-dimethyl-phenyl)sulfonyl]-methyl]-[1,2,4]oxadiazol-3-yl]-N-(4-pyrrolidin-1-yl-cyclohexyl)-acetamid], the inhibition at 10 µM came out at 100%.

With `COc1cc(C)c(S(=O)(=O)Cc2nc(CC(=O)NC3CCC(N4CCN(C)CC4)CC3(C)C)no2)c(C)c1` (stereo not shown) [CC-33, N-[2,2-Dimethyl-4-(4-methyl-piperazin-1-yl)-cyclohexyl]-2-[5-[[(4-methoxy-2,6-dimethyl-phenyl)sulfonyl]-methyl]-[1,2,4]oxadiazol-3-yl]-acetamid], the inhibition at 10 µM came to 100%.

`COc1cc(C)c(S(=O)(=O)Cc2nnc(CC(=O)NC3CCC(N(C)C)CC3)o2)c(C)c1` (stereo not shown) [CC-34, N-(4-Dimethylamino-cyclohexyl)-2-[5-[[(4-methoxy-2,6-dimethyl-phenyl)sulfonyl]-methyl]-[1,3,4]oxadiazol-2-yl]-acetamid]: the inhibition at 10 µM was 100%.

On to `COc1cc(C)c(S(=O)(=O)Cc2nc(CC(=O)NC3CCC(NC4CC4)CC3(C)C)no2)c(C)c1` (stereo not shown) [CC-35, N-[4-(Cyclopropylamino)-2,2-dimethyl-cyclohexyl]-2-[5-[[(4-methoxy-2,6-dimethyl-phenyl)sulfonyl]-methyl]-[1,2,4]oxadiazol-3-yl]-acetamid], for which the inhibition at 10 µM was determined as 100%.

Turning to `COc1cc(C)c(S(=O)(=O)Cc2nnc(CC(=O)NC3CCC(c4ccncc4)CC3(C)C)o2)c(C)c1` (stereo not shown) [CC-36, N-(2,2-Dimethyl-4-pyridin-4-yl-cyclohexyl)-2-[5-[[(4-methoxy-2,6-dimethyl-phenyl)sulfonyl]-methyl]-[1,3,4]oxadiazol-2-yl]-acetamid], the inhibition at 10 µM turned out to be 100%.

For the compound `COc1cc(C)c(S(=O)(=O)Cc2nc(CC(=O)NC3CCC(c4ccncc4)CC3(C)C)no2)c(C)c1` (stereo not shown) [CC-37, N-(2,2-Dimethyl-4-pyridin-4-yl-cyclohexyl)-2-[5-[[(4-methoxy-2,6-dimethyl-phenyl)sulfonyl]-methyl]-[1,2,4]oxadiazol-3-yl]-acetamid], the inhibition at 10 µM worked out at 99%.

In the case of `COc1cc(C)c(S(=O)(=O)Cc2nnc(CC(=O)NC3CCC(N4CCCC4)CC3)o2)c(C)c1` (stereo not shown) [CC-40], the inhibition at 10 µM is 100%.

Turning to `COc1cc(C)c(S(=O)(=O)Cc2nc(CC(=O)NC3CCNCC3)no2)c(C)c1` [CC-42, 2-[5-[[(4-Methoxy-2,6-dimethyl-phenyl)sulfonyl]-methyl]-[1,2,4]oxadiazol-3-yl]-N-piperidin-4-yl-acetamid], the inhibition at 10 µM was determined as 100%.

As to `Cc1cc(S(=O)(=O)Cc2noc(CC(=O)NC3CCC(N4CCCC4)CC3(C)C)n2)c(C)cc1Cl` (stereo not shown) [CC-43, 2-[3-[[(4-Chlor-2,5-dimethyl-phenyl)sulfonyl]-methyl]-[1,2,4]oxadiazol-5-yl]-N-(2,2-dimethyl-4-pyrrolidin-1-yl-cyclohexyl)-acetamid], the inhibition at 10 µM was found to be 99%.
